# Experimental data as given in the Kinase Knowledgebase extract (Sharma et al. 2016).
# Where “and” joins values, the source holds several entries; their conditions need not be identical. Equal entries are not always repeated.
# How the values were obtained:
# [1] = molecular target: PIK3CA (human) (UniProt P42336); assay: Inhibition of PIK3CA Kinase Activity
# [2] = molecular target: PIK3CA (human), P42336 [Antiproliferation of PI3K Mutated BT20 Cells]; assay: Cell-Based Assay
# Sequence of PIK3CA (human), P42336 [Antiproliferation of PI3K Mutated BT20 Cells] (P42336 whole entry, looked up, change not shown): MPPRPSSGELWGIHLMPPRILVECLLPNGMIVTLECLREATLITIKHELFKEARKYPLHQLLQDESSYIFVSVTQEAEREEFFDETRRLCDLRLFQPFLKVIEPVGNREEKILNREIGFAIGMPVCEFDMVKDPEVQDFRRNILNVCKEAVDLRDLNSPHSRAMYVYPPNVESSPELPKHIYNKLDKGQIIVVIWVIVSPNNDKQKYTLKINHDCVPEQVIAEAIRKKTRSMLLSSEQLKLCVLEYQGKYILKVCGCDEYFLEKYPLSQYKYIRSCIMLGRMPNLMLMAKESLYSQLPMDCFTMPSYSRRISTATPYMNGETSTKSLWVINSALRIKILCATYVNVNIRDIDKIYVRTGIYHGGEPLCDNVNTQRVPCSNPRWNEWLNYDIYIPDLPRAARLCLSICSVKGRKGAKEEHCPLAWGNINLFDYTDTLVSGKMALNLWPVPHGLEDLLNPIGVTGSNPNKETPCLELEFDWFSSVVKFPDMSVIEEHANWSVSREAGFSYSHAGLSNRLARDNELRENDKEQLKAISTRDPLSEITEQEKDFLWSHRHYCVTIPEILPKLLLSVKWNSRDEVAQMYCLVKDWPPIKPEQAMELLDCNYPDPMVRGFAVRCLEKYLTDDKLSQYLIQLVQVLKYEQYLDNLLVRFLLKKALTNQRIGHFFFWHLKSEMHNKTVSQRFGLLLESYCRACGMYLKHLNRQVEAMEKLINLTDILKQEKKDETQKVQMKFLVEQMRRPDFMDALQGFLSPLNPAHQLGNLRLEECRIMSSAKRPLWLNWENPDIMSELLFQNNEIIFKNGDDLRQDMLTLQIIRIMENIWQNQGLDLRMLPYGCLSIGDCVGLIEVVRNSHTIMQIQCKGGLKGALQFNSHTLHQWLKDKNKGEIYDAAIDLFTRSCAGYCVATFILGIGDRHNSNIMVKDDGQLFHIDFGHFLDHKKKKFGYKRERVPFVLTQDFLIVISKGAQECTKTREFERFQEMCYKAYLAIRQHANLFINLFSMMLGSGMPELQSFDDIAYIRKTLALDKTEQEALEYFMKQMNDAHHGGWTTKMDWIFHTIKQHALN
# Sequence of PIK3CA (human) (P42336 whole entry, looked up): as the sequence (P42336 whole entry, looked up, change not shown) above
Structure (SMILES),IC50 [1],IC50 [2]
CCn1nccc1NC(=O)c1cc2c(C)nc(N)nc2n(C(C)C)c1=O,3.9 nM,
Cc1nc(N)nc2c1cc(-c1cn[nH]c1)c(=O)n2C1CCOC1 (centres undefined),20 nM,25.8 nM
CO[C@H]1CC[C@H](n2c(=O)c(-c3cc[nH]n3)cc3c(C)nc(N)nc32)CC1,9.5 nM,17.2 nM
Cc1nc(N)nc2c1cc(-c1cccnc1N)c(=O)n2C1CCCC1,1430 nM,9010 nM
Cc1nc(N)nc2c1cc(-c1cccc(O)c1)c(=O)n2C1CCCC1,0.524 nM,4.84 nM
COc1ncc(-c2cc3c(C)nc(N)nc3n([C@H]3C[C@H](OCC(N)=O)C3)c2=O)cc1F,2.14 nM,12.6 nM
Cc1nc(N)nc2c1cc(-c1cccc(CO)c1)c(=O)n2C1CCCC1,3.1 nM,20.2 nM
COc1ncc(-c2cc3c(C)nc(N)nc3n(C3CCCC3)c2=O)cn1,2 nM,9.57 nM
CNc1nc(C)c2cc(-c3ccc(OC)nc3)c(=O)n(CC3CCOC3)c2n1 (centres undefined),4.6 nM,45.6 nM
Cc1nc(N)nc2c1cc(-c1cnc3[nH]ccc3c1)c(=O)n2CC1CCOC1 (centres undefined),2.8 nM,57.8 nM
COc1ccc(-c2cc3c(C)nc(N)nc3n(CC3(F)CCOCC3)c2=O)cn1,18 nM,316 nM
COc1cc(-c2cc3c(C)nc(N)nc3n(C3CCCC3)c2=O)ccc1O,0.989 nM,19 nM
CNc1nc(C)c2cc(-c3ccc(OC)nc3)c(=O)n(C(C)C)c2n1,110 nM and 21 nM,95.2 nM
COc1ccc(-c2cc3c(C)nc(N)nc3n(C3CN(C(=O)OC(C)(C)C)C3)c2=O)cn1,29 nM,318 nM
COc1ncc(-c2cc3c(C)nc(N)nc3n([C@H]3CC[C@@H](OCCO)CC3)c2=O)cc1F,2.6 nM,
CNc1nc(C)c2cc(C(N)=O)c(=O)n(C3CCCC3)c2n1,68 nM,650 nM
CCNc1nc(C)c2cc(-c3cnc(OC)c(F)c3)c(=O)n([C@H]3CC[C@H](O)CC3)c2n1,0.788 nM,5.1 nM
CNc1nc(C)c2cc(-c3ccc(OC)nc3)c(=O)n(CCC3CC3)c2n1,8.9 nM,41.4 nM
CNc1nc(C)c2cc(-c3cccc(O)c3)c(=O)n(C3CCCC3)c2n1,0.731 nM,1.76 nM
COc1ccc(-c2cc3c(C)nc(N)nc3n(C3CC3)c2=O)cn1,56 nM,
CNc1nc(C)c2cc(-c3cccc(CO)c3)c(=O)n(C3CCCC3)c2n1,4.78 nM,14.7 nM
Cc1nc(N)nc2c1cc(-c1cn[nH]c1)c(=O)n2C1CC1,78 nM,

Structure (SMILES),IC50 [1],IC50 [2]
CO[C@H]1CC[C@H](n2c(=O)c(Br)cc3c(C)nc(N)nc32)CC1,31 nM,64 nM
COc1ccc(-c2cc3c(C)nc(N)nc3n([C@H]3CC[C@H](O)CC3)c2=O)cn1,,3.6 nM
CNc1nc(C)c2cc(C#N)c(=O)n(C3CCCC3)c2n1,60 nM,603 nM
CNc1nc(C)c2cc(-c3cnc4[nH]ccc4c3)c(=O)n(CC3CCOC3)c2n1 (centres undefined),1.6 nM,13.5 nM
CCNc1nc(C)c2cc(-c3cccc(OC)c3)c(=O)n(C3CCCC3)c2n1,792 nM,1390 nM
COc1ccc(-c2cc3c(C)nc(N)nc3n([C@H]3CC[C@H](OC[C@@H](O)CO)CC3)c2=O)cn1,6.82 nM,13.2 nM
Cc1nc(N)nc2c1cc(-c1cnn(CCO)c1)c(=O)n2C1CCCC1,45 nM,495 nM
CNc1nc(C)c2cc(-c3cnn(CC(F)F)c3)c(=O)n(C3CCCC3)c2n1,46 nM,10000 nM
COc1ccc(-c2cc3c(C)nc(N)nc3n(CC3CCOCC3)c2=O)cn1,15 nM,88.4 nM
Cc1nc(N)nc2c1cc(-c1cnc3[nH]ccc3c1)c(=O)n2C(C)C,2.3 nM,6.77 nM
Cc1nc(N)nc2c1cc(-c1cnn(C)c1)c(=O)n2[C@H]1CC[C@H](OCCO)CC1,22.3 nM,226 nM
CNc1nc(C)c2cc(C(=O)Nc3cc[nH]n3)c(=O)n(C3CCCC3)c2n1,2.34 nM,16.4 nM
Cc1nc(N)nc2c1cc(-c1cnn(C)c1)c(=O)n2C1CCCC1,32 nM,623 nM
Cc1nc(N)nc2c1cc(-c1cn[nH]c1)c(=O)n2CC(F)(F)F,188 nM,236 nM
COc1ccc(-c2cc3c(C)nc(N)nc3n(C3CCN(C(=O)OC(C)(C)C)C3)c2=O)cn1 (centres undefined),27 nM,172 nM
COc1ccc(-c2cc3c(C)nc(N)nc3n(CCC3CC3)c2=O)cn1,11 nM,94.2 nM
Cc1nc(N)nc2c1cc(-c1cn[nH]c1)c(=O)n2C1CN(C(=O)OC(C)(C)C)C1,120 nM,41.5 nM
COc1ncc(-c2cc3c(C)nc(N)nc3n([C@H]3C[C@H](OCCO)C3)c2=O)cn1,6.65 nM,93.5 nM
Cc1nc(N)nc2c1cc(C(=O)Nc1ccn[nH]1)c(=O)n2[C@H]1CC[C@H](O)CC1,0.59 nM,28.3 nM
COc1ccc(-c2cc3c(C)nc(N)nc3n([C@H]3CC[C@H](OCC(N)=O)CC3)c2=O)cn1,,19.3 nM
Cc1nc(N)nc2c1cc(-c1ccc(F)cc1)c(=O)n2CC(C)(C)O,3400 nM,10000 nM
COc1ccc(-c2cc3c(C)nc(N)nc3n(C3CCOCC3)c2=O)cn1,,71.4 nM

Structure (SMILES),IC50 [1],IC50 [2]
Cc1nc(N)nc2c1cc(-c1cnn(CC(C)(C)O)c1)c(=O)n2C1CCCC1,89 nM,101 nM
CNc1nc(C)c2cc(-c3cncnc3)c(=O)n(C3CCCC3)c2n1,23 nM,305 nM
COc1ncc(-c2cc3c(C)nc(N)nc3n([C@H]3CC[C@H](OCC(N)=O)CC3)c2=O)cn1,,51.9 nM
COc1ccc(-c2cc3c(C)nc(N)nc3n(N3CCCC3)c2=O)cn1,23 nM,
CNc1nc(C)c2cc(-c3cccc(OC)c3)c(=O)n(C3CCCC3)c2n1,244 nM,669 nM
COc1ccc(-c2cc3c(C)nc(N)nc3n(C(C)C)c2=O)cn1,11 nM,64 nM
Cc1nc(N)nc2c1cc(-c1ccc(N3CCCC3)nc1)c(=O)n2[C@H]1CC[C@H](O)CC1,19 nM,4.92 nM
Cc1nc(N)nc2c1cc(-c1cnc3[nH]ccc3c1)c(=O)n2C1CN(C(=O)OC(C)(C)C)C1,38 nM,256 nM
CCNc1nc(C)c2cc(CCC(=O)N(CC)CC)c(=O)n(C3CCCC3)c2n1,,10000 nM
Cc1nc(N)nc2c1cc(-c1ccc(Cl)nc1)c(=O)n2C1CCCC1,39.1 nM,74.2 nM
Cc1nc(N)nc2c1cc(-c1cn[nH]c1)c(=O)n2[C@H]1CC[C@@H](OCCO)CC1,29.7 nM,9.1 nM
COc1ccc(-c2cc3c(C)nc(N)nc3n([C@H]3C[C@H](OCCO)C3)c2=O)cn1,10.2 nM,50.8 nM
CNc1nc(C)c2cc(C(=O)Nc3ccon3)c(=O)n(C3CCCC3)c2n1,5 nM,72.2 nM
COc1ccc(-c2cc3c(C)nc(N)nc3n([C@H]3CC[C@@H](OCC(N)=O)CC3)c2=O)cn1,,20.5 nM
Cc1nc(N)nc2c1cc(-c1cnn(C(=O)OC(C)(C)C)c1)c(=O)n2N1CCCC1,93 nM,5.08 nM
CCN(CC)C(=O)OCn1cc(-c2cc3c(C)nc(N)nc3n(C(C)C)c2=O)nn1,3300 nM,10000 nM
Cc1cc(-c2cc3c(C)nc(N)nc3n(C3CCCC3)c2=O)cnc1N(C)C,11 nM,23.1 nM
Cc1nc(N)nc2c1cc(-c1cnc(N)cn1)c(=O)n2C1CCCC1,15 nM,17.9 nM
COc1ncc(-c2cc3c(C)nc(N)nc3n(C(C)C)c2=O)cn1,2.2 nM,49.3 nM
COc1ccc(-c2cc3c(C)nc(N)nc3n(C3CCC(=O)CC3)c2=O)cn1,4.3 nM,19.3 nM
Cc1nc(N)nc2c1cc(-c1ccc(N(C)C)nc1)c(=O)n2[C@H]1CC[C@H](OCCO)CC1,9.28 nM,12.1 nM
CCn1cc(CNC(=O)c2cc3c(C)nc(NC)nc3n(C3CCCC3)c2=O)cn1,1200 nM,

Structure (SMILES),IC50 [1],IC50 [2]
Cc1nc(N)nc2c1cc(-c1ccc(OC(C)C)nc1)c(=O)n2[C@H]1CC[C@H](O)CC1,9.4 nM,71.8 nM
Cc1nc(N)nc2c1cc(-c1cn[nH]c1)c(=O)n2C1CCCC1,,3.49 nM
CNc1nc(C)c2cc(-c3ccc(O)c(OC)c3)c(=O)n(C3CCCC3)c2n1,1.57 nM,3.82 nM
COc1ccc(-c2cc3c(C)nc(N)nc3n(C3CCNC3)c2=O)cn1 (centres undefined),200 nM,671 nM
COc1ncc(-c2cc3c(C)nc(N)nc3n([C@H]3CC[C@@H](OCCO)CC3)c2=O)cn1,5.31 nM,15.3 nM
C#Cc1cc2c(C)nc(N)nc2n(C2CCC2)c1=O,110 nM,657 nM
Cc1nc(NCC(C)(C)O)nc2c1cc(-c1cccc(O)c1)c(=O)n2C1CCCC1,,1180 nM
COc1ncc(-c2cc3c(C)nc(N)nc3n([C@H]3CC[C@H](OCCO)CC3)c2=O)cc1F,1.44 nM,5.3 nM
COc1ccc(-c2cc3c(C)nc(N)nc3n(CCN)c2=O)cn1,340 nM,4530 nM
CCNc1nc(C)c2cc(CCC(=O)Nc3ccccn3)c(=O)n(C3CCCC3)c2n1,,10000 nM
Cc1nc(N)nc2c1cc(-c1cnc3ccccc3c1)c(=O)n2[C@H]1CC[C@H](O)CC1,8.2 nM,42 nM
Cc1nc(N)nc2c1cc(-c1ccccc1)c(=O)n2Cc1ccc(Cl)cc1,1400 nM,
CCNc1nc(C)c2cc(CCC(=O)N(C)C)c(=O)n(C3CCCC3)c2n1,,10000 nM
Cc1nc(N)nc2c1cc(-c1cn[nH]c1)c(=O)n2N1CCCC1,28 nM,
Cc1nc(N)nc2c1cc(-c1ccncc1)c(=O)n2Cc1ccc(Cl)cc1,4900 nM,
COc1ncc(-c2cc3c(C)nc(N)nc3n([C@H]3CC[C@@H](OCC(N)=O)CC3)c2=O)cn1,,82.9 nM
COc1ccc(-c2cc3c(C)nc(N)nc3n([C@H]3CC[C@@H](O)CC3)c2=O)cn1,,19 nM
Cc1nc(N)nc2c1cc(-c1cnc3ccccc3c1)c(=O)n2CC(C)(C)O,,322 nM
COc1ncc(-c2cc3c(C)nc(N)nc3n(C3CCOCC3)c2=O)cc1F,1.43 nM,
CNc1nc(C)c2cc(-c3cc(CN)ccc3F)c(=O)n(C3CCCC3)c2n1,,10000 nM
COc1ccc(Cn2c(=O)c(-c3ccccc3)cc3c(C)nc(N)nc32)cc1,310 nM,
